Measured values published in PubChem BioAssay (NCI).
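Briefly, cells in 96-well plates were exposed to five compound concentrations for 48 h, and endpoints were estimated by linear interpolation. Here, GI50 denotes the concentration required for 50% inhibition of growth. TGI: concentration producing complete growth inhibition.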

Assays:
Assay in all cases: NCI-60 cell line screen, 48 h
HOP-92 NSCLC = system: HOP-92 NSCLC
HL-60(TB) leukemia = system: HL-60(TB) leukemia
OVCAR-4 ovarian = system: OVCAR-4 ovarian
SNB-19 CNS = system: SNB-19 CNS
EKVX NSCLC = system: EKVX NSCLC
DU-145 prostate = system: DU-145 prostate
HS 578T breast = system: HS 578T breast
TK-10 renal = system: TK-10 renal
OVCAR-8 ovarian = system: OVCAR-8 ovarian
BT-549 breast = system: BT-549 breast
U251 CNS = system: U251 CNS
UO-31 renal = system: UO-31 renal
OVCAR-5 ovarian = system: OVCAR-5 ovarian
NCI-H23 lung = system: NCI-H23 lung
A498 renal = system: A498 renal
LOX IMVI melanoma = system: LOX IMVI melanoma
SK-MEL-2 melanoma = system: SK-MEL-2 melanoma
M14 melanoma = system: M14 melanoma
HCC-2998 colon = system: HCC-2998 colon
SK-MEL-5 melanoma = system: SK-MEL-5 melanoma
SF-268 CNS = system: SF-268 CNS
HCT-116 colon = system: HCT-116 colon
SF-539 CNS = system: SF-539 CNS
SF-295 CNS = system: SF-295 CNS
CAKI-1 renal = system: CAKI-1 renal
786-0 renal = system: 786-0 renal
KM12 colon = system: KM12 colon
PC-3 prostate = system: PC-3 prostate
OVCAR-3 ovarian = system: OVCAR-3 ovarian
CCRF-CEM leukemia = system: CCRF-CEM leukemia
NCI/ADR-RES ovarian = system: NCI/ADR-RES ovarian
SNB-75 CNS = system: SNB-75 CNS
RXF 393 renal = system: RXF 393 renal
UACC-62 melanoma = system: UACC-62 melanoma
UACC-257 melanoma = system: UACC-257 melanoma
HOP-62 NSCLC = system: HOP-62 NSCLC
ACHN renal = system: ACHN renal
HCT-15 colon = system: HCT-15 colon
K-562 leukemia = system: K-562 leukemia
NCI-H460 lung = system: NCI-H460 lung
MDA-MB-231 breast = system: MDA-MB-231 breast
RPMI-8226 leukemia = system: RPMI-8226 leukemia
MCF7 breast = system: MCF7 breast
NCI-H226 lung = system: NCI-H226 lung
A549 NSCLC = system: A549 NSCLC
SK-MEL-28 melanoma = system: SK-MEL-28 melanoma
MALME-3M melanoma = system: MALME-3M melanoma
SW-620 colon = system: SW-620 colon
COLO 205 colon = system: COLO 205 colon
HT29 colon = system: HT29 colon
T-47D breast = system: T-47D breast
MOLT-4 leukemia = system: MOLT-4 leukemia
SR leukemia = system: SR leukemia
SK-OV-3 ovarian = system: SK-OV-3 ovarian
MDA-MB-435 = system: MDA-MB-435
IGROV1 ovarian = system: IGROV1 ovarian
SN12C renal = system: SN12C renal
NCI-H522 lung = system: NCI-H522 lung

C[n+]1cn(-c2ccc([N+](=O)[O-])cn2)c2ccccc21
TGI (HOP-92 NSCLC): > 100 µM
TGI (HL-60(TB) leukemia): > 100 µM
TGI (OVCAR-4 ovarian): > 100 µM
TGI (SNB-19 CNS): > 100 µM
TGI (EKVX NSCLC): > 100 µM
TGI (DU-145 prostate): > 100 µM
TGI (HS 578T breast): > 100 µM
TGI (TK-10 renal): > 100 µM
TGI (OVCAR-8 ovarian): > 100 µM
TGI (BT-549 breast): > 100 µM
TGI (U251 CNS): > 100 µM
TGI (UO-31 renal): > 100 µM
TGI (OVCAR-5 ovarian): > 100 µM
TGI (NCI-H23 lung): > 100 µM
TGI (A498 renal): > 100 µM
TGI (LOX IMVI melanoma): > 100 µM
TGI (SK-MEL-2 melanoma): > 100 µM
TGI (M14 melanoma): > 100 µM
TGI (HCC-2998 colon): > 100 µM
TGI (SK-MEL-5 melanoma): > 100 µM
TGI (SF-268 CNS): > 100 µM
TGI (HCT-116 colon): > 100 µM
TGI (SF-539 CNS): > 100 µM
TGI (SF-295 CNS): > 100 µM
TGI (CAKI-1 renal): > 100 µM
TGI (786-0 renal): > 100 µM
TGI (KM12 colon): > 100 µM
TGI (PC-3 prostate): > 100 µM
TGI (OVCAR-3 ovarian): > 100 µM
TGI (CCRF-CEM leukemia): > 100 µM
TGI (NCI/ADR-RES ovarian): > 100 µM
TGI (SNB-75 CNS): > 100 µM
TGI (RXF 393 renal): > 100 µM
TGI (UACC-62 melanoma): > 100 µM
TGI (UACC-257 melanoma): > 100 µM
TGI (HOP-62 NSCLC): > 100 µM
TGI (ACHN renal): > 100 µM
TGI (HCT-15 colon): > 100 µM
TGI (K-562 leukemia): > 100 µM
TGI (NCI-H460 lung): > 100 µM
TGI (MDA-MB-231 breast): > 100 µM
TGI (RPMI-8226 leukemia): > 100 µM
TGI (MCF7 breast): > 100 µM
TGI (NCI-H226 lung): > 100 µM
TGI (A549 NSCLC): > 100 µM
TGI (SK-MEL-28 melanoma): > 100 µM
TGI (MALME-3M melanoma): > 100 µM
TGI (SW-620 colon): > 100 µM
TGI (COLO 205 colon): > 100 µM
TGI (HT29 colon): > 100 µM
TGI (T-47D breast): > 100 µM
TGI (MOLT-4 leukemia): > 100 µM
TGI (SR leukemia): > 100 µM
TGI (SK-OV-3 ovarian): > 100 µM
TGI (MDA-MB-435): > 100000 nM
TGI (IGROV1 ovarian): > 100 µM

Cc1ccc(S(=O)(=O)Oc2ccccc2-c2ccccc2)cc1
GI50 (HOP-92 NSCLC): 5.73 µM
TGI (HOP-92 NSCLC): > 100 µM
GI50 (HL-60(TB) leukemia): 2120 nM
TGI (HL-60(TB) leukemia): > 100 µM
GI50 (OVCAR-4 ovarian): 7.13 µM
TGI (OVCAR-4 ovarian): > 100 µM
GI50 (SN12C renal): 6.18 µM
TGI (SN12C renal): > 100 µM
GI50 (SNB-19 CNS): 5.24 µM
TGI (SNB-19 CNS): > 100 µM
GI50 (EKVX NSCLC): 3.21 µM
TGI (EKVX NSCLC): > 100 µM
GI50 (DU-145 prostate): 2870 nM
TGI (DU-145 prostate): > 29.8 µM
GI50 (HS 578T breast): 3.09 µM
TGI (HS 578T breast): > 26.9 µM
GI50 (TK-10 renal): 12 µM
TGI (TK-10 renal): > 100 µM
GI50 (OVCAR-8 ovarian): 4.86 µM
TGI (OVCAR-8 ovarian): > 100 µM
GI50 (BT-549 breast): 8.41 µM
TGI (BT-549 breast): > 100 µM
GI50 (U251 CNS): 3.81 µM
TGI (U251 CNS): > 100 µM
GI50 (UO-31 renal): 4.01 µM
TGI (UO-31 renal): > 75.7 µM
GI50 (OVCAR-5 ovarian): 8.26 µM
TGI (OVCAR-5 ovarian): > 100 µM
GI50 (NCI-H23 lung): 5.21 µM
TGI (NCI-H23 lung): > 100 µM
GI50 (A498 renal): 1420 nM
TGI (A498 renal): 8.94 µM
GI50 (LOX IMVI melanoma): 4.22 µM
TGI (LOX IMVI melanoma): > 100 µM
GI50 (SK-MEL-2 melanoma): 6.55 µM
TGI (SK-MEL-2 melanoma): > 26.1 µM
GI50 (M14 melanoma): 2050 nM
TGI (M14 melanoma): > 86.1 µM
GI50 (HCC-2998 colon): 3.87 µM
TGI (HCC-2998 colon): > 72.7 µM
GI50 (SK-MEL-5 melanoma): 2980 nM
TGI (SK-MEL-5 melanoma): > 100 µM
GI50 (SF-268 CNS): 5.95 µM
TGI (SF-268 CNS): > 100 µM
GI50 (HCT-116 colon): 2850 nM
TGI (HCT-116 colon): > 100 µM
GI50 (SF-539 CNS): 2380 nM
TGI (SF-539 CNS): 8.1 µM
GI50 (SF-295 CNS): 702 nM
TGI (SF-295 CNS): 3.3 µM
GI50 (CAKI-1 renal): 1300 nM
TGI (CAKI-1 renal): > 25.5 µM
GI50 (786-0 renal): 8.26 µM
TGI (786-0 renal): > 100 µM
GI50 (KM12 colon): 743 nM
TGI (KM12 colon): > 100 µM
GI50 (PC-3 prostate): 3.52 µM
TGI (PC-3 prostate): > 100 µM
GI50 (OVCAR-3 ovarian): 1810 nM
TGI (OVCAR-3 ovarian): 6.94 µM
GI50 (CCRF-CEM leukemia): 2480 nM
TGI (CCRF-CEM leukemia): > 100 µM
GI50 (NCI/ADR-RES ovarian): 1130 nM
TGI (NCI/ADR-RES ovarian): > 28.9 µM
GI50 (SNB-75 CNS): 2630 nM
TGI (SNB-75 CNS): > 29 µM
GI50 (RXF 393 renal): 2310 nM
TGI (RXF 393 renal): > 27.7 µM
GI50 (UACC-62 melanoma): 2300 nM
TGI (UACC-62 melanoma): > 100 µM
GI50 (UACC-257 melanoma): 4.35 µM
TGI (UACC-257 melanoma): > 100 µM
GI50 (HOP-62 NSCLC): 4.24 µM
TGI (HOP-62 NSCLC): > 100 µM
GI50 (ACHN renal): 6.81 µM
TGI (ACHN renal): > 100 µM
GI50 (HCT-15 colon): 1620 nM
TGI (HCT-15 colon): > 100 µM
GI50 (K-562 leukemia): 524 nM
TGI (K-562 leukemia): > 100 µM
GI50 (NCI-H460 lung): 2320 nM
TGI (NCI-H460 lung): > 100 µM
GI50 (MDA-MB-231 breast): 3.7 µM
TGI (MDA-MB-231 breast): > 100 µM
GI50 (RPMI-8226 leukemia): 3.42 µM
TGI (RPMI-8226 leukemia): > 55.6 µM
GI50 (MCF7 breast): 2470 nM
TGI (MCF7 breast): > 100 µM
GI50 (NCI-H226 lung): 21.2 µM
TGI (NCI-H226 lung): > 100 µM
GI50 (A549 NSCLC): 4.4 µM
TGI (A549 NSCLC): > 100 µM
GI50 (SK-MEL-28 melanoma): 7.77 µM
TGI (SK-MEL-28 melanoma): > 100 µM
GI50 (NCI-H522 lung): 542 nM
TGI (NCI-H522 lung): 7.83 µM
GI50 (SW-620 colon): 1030 nM
TGI (SW-620 colon): > 100 µM
GI50 (COLO 205 colon): 2250 nM
TGI (COLO 205 colon): 8.41 µM
GI50 (HT29 colon): 1180 nM
TGI (HT29 colon): > 43.2 µM
GI50 (T-47D breast): 5.14 µM
TGI (T-47D breast): > 100 µM
GI50 (MOLT-4 leukemia): 3.9 µM
TGI (MOLT-4 leukemia): > 100 µM
GI50 (SR leukemia): 465 nM
TGI (SR leukemia): > 70.7 µM
GI50 (SK-OV-3 ovarian): 3.24 µM
TGI (SK-OV-3 ovarian): > 45.8 µM
GI50 (MDA-MB-435): 249 nM
TGI (MDA-MB-435): 834 nM
GI50 (IGROV1 ovarian): 2160 nM
TGI (IGROV1 ovarian): > 100 µM
